# According to patent US20040254162A1, “Oxazolidinone derivatives as antimicrobials” (priority 2001, published 2004):
# How the values were obtained:
# S. aureus ATCC 25923 = test: MIC, agar incorporation method; details: agar incorporation
# MRSA 15187 = test: MIC, agar incorporation method; details: agar incorporation
# MRSA 562 = test: MIC, agar incorporation method; details: for MIC MRSA 562: agar incorporation, Table 1
# MRSA 33 = test: MIC, agar incorporation method; details: agar incorporation
# Ent. faecalis ATCC 29212 = test: MIC, agar incorporation method; details: agar incorporation
# VRE 6A (Ent. faecium 6A) = test: MIC, agar incorporation method; details: agar incorporation
# Strep. pyog. ATCC 19615 = test: MIC, agar incorporation method; details: agar incorporation
# Strep. pne. ATCC 6303 = test: MIC, agar incorporation method; details: agar incorporation
# S. pneum AB 34 = test: MIC, agar incorporation method; details: agar incorporation
# G +ve bacteria = test: Summary of in vitro activity (MIC); details: for MIC50 / MIC90: G +ve, Number 49; for Geometric Mean of in vitro activity (MIC): Gram + ve
# S. aureus = test: Summary of in vitro activity (MIC); details: S. aureus; for MIC50 / MIC90: Number 8
# E. faecalis = test: Summary of in vitro activity (MIC); details: E. faecalis; for MIC50 / MIC90: Number 7
# S. pneumoniae = test: Summary of in vitro activity (MIC); details: S. pneumoniae; for MIC50 / MIC90: Number 19
SMILES,MIC S. aureus 25923 (S. aureus ATCC 25923),MIC MRSA 15187 (MRSA 15187),MIC MRSA 562 (MRSA 562),MIC MRSA 33 (MRSA 33),MIC E. faecalis 29212 (Ent. faecalis ATCC 29212),MIC VRE 6A (VRE 6A (Ent. faecium 6A)),MIC S. pyogenes 19615 (Strep. pyog. ATCC 19615),MIC S. pneum 6303 (Strep. pne. ATCC 6303),MIC S. pneum AB 34 (S. pneum AB 34),other results
"CC(=O)NC[C@H]1CN(c2ccc(N3CCN(Cc4ccc(C=O)o4)CC3)c(F)c2)C(=O)O1 [Compound No. 02, (S)-N-[[3-[3-Fluoro-4-[N-1[4-{2-furyl(5-formyl)methyl}]piperazinyl]phenyl]-2-oxo-5-oxazolidinyl]methyl]acetamide]",1 µg/mL,2 µg/mL,1 µg/mL,2 µg/mL,8 µg/mL,8 µg/mL,8 µg/mL,4 µg/mL,8 µg/mL,
"CC(=O)NC[C@H]1CN(c2ccc(N3CCN(Cc4cccs4)CC3)c(F)c2)C(=O)O1 [Compound No. 12, (S)-N-[[3-[3-Fluoro-4-[N-1[4-(2-thienylmethyl)]piperazinyl]phenyl]-2-oxo-5-oxazolidinyl]methyl]acetamide]",8 µg/mL,8 µg/mL,8 µg/mL,8 µg/mL,8 µg/mL,8 µg/mL,4 µg/mL,8 µg/mL,8 µg/mL,
"CC(=O)NC[C@H]1CN(c2ccc(N3CCN(Cc4cc(Br)cs4)CC3)c(F)c2)C(=O)O1 [Compound No. 14, (S)-N-[[3-[3-Fluoro-4-[N-1[4-{2-thienyl(4-bromo)methyl}]piperazinyl]phenyl]-2-oxo-5-oxazolidinyl]methyl]acetamide]",4 µg/mL,2 µg/mL,2 µg/mL,2 µg/mL,2 µg/mL,2 µg/mL,2 µg/mL,4 µg/mL,4 µg/mL,
"CC(=O)NC[C@H]1CN(c2ccc(N3CCN(Cc4cccn4C)CC3)c(F)c2)C(=O)O1 [Compound No. 22, (S)-N[[3-[3-Fluoro-4-[N-1[4-{2-pyrrole(1-methyl)methyl}]piperazinyl]phenyl]2-oxo-5-oxazolidinyl]methyl]acetamide]",2 µg/mL,8 µg/mL,4 µg/mL,8 µg/mL,8 µg/mL,8 µg/mL,1 µg/mL,1 µg/mL,1 µg/mL,
CC(=O)NC[C@H]1CN(c2ccc(N3CCN(Cc4ccc(Br)s4)CC3)c(F)c2)C(=O)O1 [Compound No. 27],2 µg/mL,2 µg/mL,2 µg/mL,2 µg/mL,2 µg/mL,4 µg/mL,1 µg/mL,2 µg/mL,0.5 µg/mL,
"CC(=O)NC[C@H]1CN(c2ccc(N3C[C@@H]4[C@H](C3)[C@H]4N(C)Cc3ccc([N+](=O)[O-])s3)c(F)c2)C(=O)O1 [Compound No. 34, (S)-N-[[3-[3-Fluoro[4-[3-(1α,5α,6α)-6-[N-(5-nitro-2-thienylmethyl)-N-methyl]-amino]-3-azabicyclo-[3.1.0]hexane]phenyl]-2-oxo-5-oxazolidinyl]methyl]acetamide]",1 µg/mL,1 µg/mL,1 µg/mL,1 µg/mL,1 µg/mL,1 µg/mL,2 µg/mL,4 µg/mL,4 µg/mL,
"CC(=O)NC[C@H]1CN(c2ccc(N3C[C@@H]4[C@@H](CN(C)C(=O)Cc5cccs5)[C@@H]4C3)c(F)c2)C(=O)O1 [Compound No. 38, (S)-N-[[3-[3-Fluoro[4-[3-(1α,5α,6α)-6-[N-(2-thiopheneacetyl)-N-methyl]amino-methyl]-3-azabicyclo-[3.1.0]hexane]phenyl]-2-oxo-5-oxazolidinyl]methyl]acetamide]",4 µg/mL,4 µg/mL,4 µg/mL,4 µg/mL,4 µg/mL,4 µg/mL,1 µg/mL,1 µg/mL,1 µg/mL,
"CC(=O)NC[C@H]1CN(c2ccc(N3CC4C(CN(C)Cc5ccc([N+](=O)[O-])s5)C4C3)c(F)c2)C(=O)O1 (stereo partly drawn) [Compound No. 39, (S)-N-[[3-[3-Fluoro[4-[3-(1α,5α,6α)-6-[N-(5-nitro-2-thienylmethyl)-N-methyl]-amino-methyl]-3-azabicyclo-[3.1.0]hexane]phenyl]-2-oxo-5-oxazolidinyl]methyl]acetamide]",8 µg/mL,8 µg/mL,8 µg/mL,4 µg/mL,2 µg/mL,8 µg/mL,0.5 µg/mL,0.5 µg/mL,0.5 µg/mL,
"CC(=O)NC[C@H]1CN(c2ccc(N3CC4C(CN(C)Cc5ccc([N+](=O)[O-])o5)C4C3)c(F)c2)C(=O)O1 (stereo partly drawn) [Compound No. 40, (S)-N-[[3-[3-Fluoro[4-[3-(1α,5α,6α)-6-[N-(5-nitro-2-furylmethyl)-N-methyl]amino-methyl]-3-azabicyclo-[3.1.0]hexane]phenyl]-2-oxo-5-oxazolidinyl]methyl]acetamide]",2 µg/mL,2 µg/mL,1 µg/mL,2 µg/mL,2 µg/mL,4 µg/mL,0.125 µg/mL,,2 µg/mL,MIC50 (G +ve bacteria): 1 µg/mL; MIC90 (G +ve bacteria): 2 µg/mL; Geometric Mean of in vitro activity (MIC) (G +ve bacteria): 0.93 µg/mL; Geometric Mean of in vitro activity (MIC) (S. aureus): 1.83 µg/mL; MIC50 (S. aureus): 2 µg/mL; MIC90 (S. aureus): 4 µg/mL; Geometric Mean of in vitro activity (MIC) (E. faecalis): 2.38 µg/mL; MIC50 (E. faecalis): 2 µg/mL; MIC90 (E. faecalis): 4 µg/mL; Geometric Mean of in vitro activity (MIC) (S. pneumoniae): 0.71 µg/mL; MIC50 (S. pneumoniae): 1 µg/mL; MIC90 (S. pneumoniae): 1 µg/mL
"CC(=O)NC[C@H]1CN(c2ccc(N3CCC(N(C)Cc4ccc([N+](=O)[O-])o4)CC3)c(F)c2)C(=O)O1 [Compound No. 50, (S)-N-[[3-[4-[4-(N-methyl-N-2-furyl(5-nitro)methyl)aminopiperidine-1-yl]-3-fluorophenyl]-2-oxo-oxazolidin-5-yl]methyl]acetamide]",1 µg/mL,1 µg/mL,0.5 µg/mL,1 µg/mL,0.5 µg/mL,0.25 µg/mL,0.125 µg/mL,0.5 µg/mL,2 µg/mL,"MIC (MRSA 562; MRSA 562, Table 5): 0.5 µg/mL; MIC50 (G +ve bacteria): 1 µg/mL; MIC90 (G +ve bacteria): 2 µg/mL; Geometric Mean of in vitro activity (MIC) (G +ve bacteria): 0.72 µg/mL; Geometric Mean of in vitro activity (MIC) (S. aureus): 1 µg/mL; MIC50 (S. aureus): 1 µg/mL; MIC90 (S. aureus): 2 µg/mL; Geometric Mean of in vitro activity (MIC) (E. faecalis): 0.42 µg/mL; MIC50 (E. faecalis): 0.5 µg/mL; MIC90 (E. faecalis): 1 µg/mL; Geometric Mean of in vitro activity (MIC) (S. pneumoniae): 1.41 µg/mL; MIC50 (S. pneumoniae): 1 µg/mL; MIC90 (S. pneumoniae): 2 µg/mL"
"CC(=O)NC[C@H]1CN(c2ccc(N3CCN(Cc4ccc(C=NN)o4)CC3)c(F)c2)C(=O)O1 [Compound No. 62, (S)-N-[[3-[3-Fluoro-4[N-1-[4-{2-furyl-(5-hydrazone)-methyl}]-piperazinyl]-phenyl]-2-oxo-5-oxazolidinyl]-methyl]acetamide]",2 µg/mL,2 µg/mL,1 µg/mL,2 µg/mL,8 µg/mL,8 µg/mL,8 µg/mL,8 µg/mL,8 µg/mL,
CC(=O)NC[C@H]1CN(c2ccc(N3CCN(Cc4ccc(C5OCCCO5)o4)CC3)c(F)c2)C(=O)O1 [Compound No. 66],2 µg/mL,2 µg/mL,2 µg/mL,2 µg/mL,16 µg/mL,16 µg/mL,8 µg/mL,8 µg/mL,8 µg/mL,
"CC1(C)S[C@@H]2[C@H](NC(=O)Cc3ccccc3)C(=O)N2[C@H]1C(=O)O [Penicillin G, reference compound]",,,,,,,,,,MIC50 (G +ve bacteria): 4 µg/mL; MIC90 (G +ve bacteria): 32 µg/mL; Geometric Mean of in vitro activity (MIC) (G +ve bacteria): 0.76 µg/mL; Geometric Mean of in vitro activity (MIC) (S. pneumoniae): 2.16 µg/mL; MIC50 (S. pneumoniae): 4 µg/mL; MIC90 (S. pneumoniae): 32 µg/mL
